Drawing on PubChem BioAssay AID2305 (GlaxoSmithKline (GSK), 2010), this text covers IC50 for 85 compounds.

The assay deals with P. falciparum 3D7 growth, pLDH absorbance. The assay can be described thus: P. falciparum 3D7 growth inhibition, dose response, strain 3D7 (AID 2305).

In general, IC50 refers to the concentration that gives 50% inhibition. Lower therefore signals greater potency in that assay. Regarding `C=CCOc1ccc(C2C(C(=O)OC)=C(C)NC3=C2C(=O)c2ccccc23)cc1OC` (stereo not given), the IC50 was 0.88 µM.

The compound `COc1ccc2nccc(NC(=O)N3CCC(NCc4cc5c(F)ccc(F)c5[nH]4)CC3)c2n1` showed an IC50 of 0.22 µM.

Regarding `CN1CCC(N2CCN(Cc3cccc(-c4cccc(-c5nc6ccccc6[nH]5)c4)c3)CC2)CC1`, the IC50 was 0.19 µM.

The compound `COc1cccc(Cc2cnc3nc(N)nc(N)c3c2C)c1` returned an IC50 of 0.17 µM.

Turning to `Cc1noc(-c2ccc(NC[C@@H](C)NC[C@H](O)c3cccc(Cl)c3)cc2)n1`, the IC50 came to 0.76 µM.

Take `CC1CCCN1Cc1ccc(-c2ccc3c(=O)cc(CCc4cccc(F)c4F)n(CC(=O)N(C)Cc4ccc(-c5ccc(C(F)(F)F)cc5)cc4)c3n2)cc1` (stereo not given): the IC50 stood at 0.82 µM.

`CC(C)[C@H](NC(=O)c1ccc(O)c(-c2ccc(Cl)c(Cl)c2)c1)C(=O)NCCN1CCCCC1` showed an IC50 of 0.34 µM.

Regarding `COc1ccc(-c2cnc3ccc(NCc4ccc(S(N)(=O)=O)cc4)nn23)cc1`, the IC50 stood at 0.8 µM.

Consider `CC(C)C[C@H](NC(=O)[C@H](Cc1ccccc1)N(C[C@H](Cc1ccccc1)NC(=O)OC(C)(C)C)C(=O)C(F)(F)F)C(=O)NC1CCN(Cc2ccccc2)CC1`, for which the IC50 stood at 0.53 µM.

`O=C(Nc1ccccc1)N(Cc1cccc(-c2cccc(CNCCc3ccccc3)c2)c1)C1CCN(Cc2ccccc2)CC1` registered an IC50 of 0.31 µM.

On to `O=C(NCCN1CCOCC1)c1ccc(CNC(=O)c2ccc(O)c(-c3ccc(Cl)c(Cl)c3)c2)cc1`, for which the IC50 came to 0.93 µM.

`O=C(Nc1ccc(CCNCCCc2ccccc2)cc1)Nc1ccc(Cl)c(Cl)c1` returned an IC50 of 0.27 µM.

`Cc1cc(N2CCC(NS(=O)(=O)c3cccc4cccnc34)CC2)nc(Nc2cccc(C#N)c2)n1`: the IC50 turned out to be 0.75 µM.

On to `O=C(Nc1ccc2c(c1)CCC2)c1ccc(CN2CCCN(Cc3cccc(O)c3)CC2)cc1`, for which the IC50 came out at 0.89 µM.

In the case of `COc1ccc(NC(=O)[C@H](CC(C)C)Nc2cc(C)nc(NCCc3cccs3)n2)cc1`, the IC50 amounted to 0.96 µM.

As to `N#Cc1ccc(NC(=O)N2CCCN(CCCCCNC(=O)/C=C/c3ccc(Cl)c(Cl)c3)CC2)cc1`, the IC50 was found to be 0.77 µM.

Compound `CCCCCOc1ccc(C=NNc2nc(-c3ccccc3)cc(=O)[nH]2)cc1` yielded an IC50 of 0.89 µM.

The compound `O=C(Nc1cccc(Cl)c1Cl)N1CCc2cc3nccc(N4CCN5CCC[C@H]5C4)c3cc21` showed a 50% inhibitory concentration (IC50) of 1.04 µM.

The compound `Cc1nc(N)nc(N)c1OCCCCOc1ccccc1` yielded an IC50 of 0.05 µM.

Take `CC(C)CC(=O)NC1CCN(Cc2c(-c3cccs3)nc3ccccc3c2C(=O)N[C@@H](C)C2CCCCC2)CC1`: the IC50 amounted to 0.82 µM.

Consider `O=C(NCCN1CCCCC1)c1cccc(Nc2nccc(Nc3ccc(Oc4ccccc4)cc3)n2)c1`, for which the IC50 was 0.27 µM.

Turning to `COCn1ccc2c3c(N)nc(N)nc3ccc21`, the IC50 is 0.99 µM.

As for `O=C(Nc1ccc(Oc2ccccc2)cc1)NC1CCC(CN2CCC(c3c[nH]c4ccccc34)CC2)CC1` (stereo not given), the IC50 stood at 0.57 µM.

With `Cn1c(N)c(C(=O)CSc2nnc(-c3cccs3)n2Cc2ccccc2)c(=O)n(C)c1=O`, the IC50 was 0.79 µM.

Turning to `O=C(/C=C/c1ccc(C(F)(F)F)cc1)NCCCCCN1CCCN(C(=O)Nc2ccc(Cl)c(Cl)c2)CC1`, the 50% inhibitory concentration (IC50) stood at 0.42 µM.

As for `Cc1[nH]c(C)c(-c2ccc(Oc3ccc(OC(F)(F)F)cc3)cc2)c(=O)c1I`, the IC50 amounted to 0.13 µM.

In the case of `CC(C)(C)c1ccc(C(=O)NC2CCC(CCN3CCc4ccc(S(C)(=O)=O)cc4CC3)CC2)cc1C(F)(F)F` (stereo not given), the IC50 was 1.22 µM.

In turn, `CC(C)Nc1nc(NCCc2cnc[nH]2)nc(NCc2cccc3ccccc23)n1` yielded an IC50 of 1.01 µM.

Compound `CC(C)n1nc(C(=O)N2CCN(c3ccccc3)CC2)c2ccccc2c1=O` registered an IC50 of 0.98 µM.

`COC(=O)c1c(C#N)c(OC)cc(O)c1CSC[C@H](Nc1nc(-c2ccc([N+](=O)[O-])cc2)cs1)C(=O)NCCN1CCCCC1` came in with an IC50 of 1.06 µM.

For `OC(COCc1ccc(-c2ccccc2)cc1)CN1CCCCC1` (stereo not given), the IC50 is 0.27 µM.

For the compound `COc1ccc(CC2(c3ccc(F)cc3)N=C(N)N(CCCc3ccc4c(c3)OCO4)C2=O)cc1` (stereo not given), the IC50 is 0.74 µM.

In the case of `Cn1nccc1C(=O)NCCNCc1cccc(-c2ccc(-c3nc4ccccc4[nH]3)s2)c1`, the half-maximal inhibitory concentration (IC50) is 0.3 µM.

Consider `O=C(C=Cc1ccc(Cl)c(Cl)c1)NCCCCCN1CCC(CCCNC(=O)[C@@H]2C[C@H]2c2ccccc2)CC1`, for which the IC50 stood at 0.77 µM.

Take `CCCc1c(Cl)cc(CNCCCNc2nc3ccncc3[nH]2)cc1Cl`: the IC50 came out at 0.74 µM.

The compound `Cc1cc2nc(-c3ccc(OCC(=O)NCc4ccc(C(C)(C)C)cc4)cc3)[nH]c2cc1C` returned an IC50 of 1.06 µM.

In turn, `CC1CCC2(CC1)N=C(N)N=C(N)N2OCc1cc2ccccc2c2ccccc12` (stereo not given) returned an IC50 of 0.24 µM.

The compound `Cc1cc(C(=O)Nc2ccc3c(c2)CCN3C2CCN(Cc3ccc(F)cc3Cl)C2)no1` (stereo not given) registered an IC50 of 0.19 µM.

`COc1ccc(CC(C)NCC(O)c2cccc(Cl)c2)cc1C` (stereo not given) returned an IC50 of 0.9 µM.

Turning to `CN(C)CCCSc1ccccc1NC(=O)C=Cc1ccccc1`, the IC50 is 0.96 µM.

On to `O=C(NC1CCCC1)c1ccc(N2CCC(NCc3cccc(C(F)(F)F)c3)CC2)cc1`, for which the IC50 came to 1.33 µM.

Compound `NC(N)=Nc1nc(-c2cccc(NC(=O)C(F)(F)F)c2)cs1` came in with an IC50 of 1.05 µM.

`OCCN1CCN(Cc2ccc(-c3cccc(-c4nc5ccc(F)cc5[nH]4)c3)cc2)CC1` came in with an IC50 of 0.61 µM.

In turn, `CN(C)CCOc1ccc(-c2cc(-c3ccnc(N)n3)c(-c3ccc(Cl)c(O)c3)o2)cc1` registered an IC50 of 0.98 µM.

`Cn1nccc1C(=O)NCCNCc1cccc(-c2cccc(-c3nc4ccc(F)cc4[nH]3)c2)c1` registered an IC50 of 0.26 µM.

As for `CCCCCCN1CCCN(Cc2ccc(C(=O)Nc3ccc(CCC)cc3)cc2)CC1`, the IC50 came to 0.66 µM.

As to `Cc1cc(C(=O)Nc2ccc3c(c2)CCN3C2CCN(Cc3ccc(O)cc3)C2)no1` (stereo not given), the concentration for half-maximal inhibition (IC50) came out at 0.77 µM.

For the compound `CC(C)NCc1ccc(-c2cccc(NC(=O)c3ccc(Cl)cc3)c2)cc1`, the IC50 worked out at 0.29 µM.

In turn, `COc1ccc(Nc2ncc3c(-c4ccc(NC(=O)c5cccc(C(F)(F)F)c5)cc4)c[nH]c3n2)cc1OC` came in with an IC50 of 1.03 µM.

`Cc1ccc(C)c(CC(=O)N2CCC(n3c(C)nc4ccc(F)cc43)CC2)c1` gave an IC50 of 0.19 µM.

In turn, `O=C(CN1CCC(NCc2cnc(-c3ccc(Cl)cc3)[nH]2)CC1)N1CCc2ccccc21` returned an IC50 of 0.65 µM.

In the case of `c1ccc2c(NCCCCCCNc3ccnc4ccccc34)ccnc2c1`, the IC50 stood at 0.19 µM.

`Cc1cc(C)cc(Oc2c(C(F)(F)F)oc3c(CN4CC(C)OC(C)C4)c(O)ccc3c2=O)c1` (stereo not given) returned an IC50 of 0.94 µM.

As for `CCCCNC(=O)[C@@H](NC(=O)c1ccc(O)c(-c2ccc(Cl)c(Cl)c2)c1)C(C)C`, the IC50 turned out to be 0.23 µM.

Consider `CS(=O)(=O)CCNCc1cccc(-c2cc3c(Nc4ccc5c(cnn5Cc5ccccc5)c4)ncnc3s2)c1`, for which the IC50 came out at 0.55 µM.

`CCCc1cc(Cc2cnc(N)nc2N)cc(CCC)c1OCCCC(=O)OCC` had an IC50 of 0.05 µM.

In the case of `COC(=O)c1cccc(CNCc2ccc(-c3ccc(-c4nc5c(C)cccc5[nH]4)s3)cc2)c1`, the IC50 came out at 0.4 µM.

On to `CCOc1ncccc1CN1CCC(N2CCc3cc(NC(=O)c4ccco4)ccc32)C1` (stereo not given), for which the IC50 was 0.76 µM.

Consider `O=C(Nc1ccc(OC(F)(F)F)cc1)NC1CCN(c2ccnc3ccccc23)CC1`, for which the IC50 was 0.3 µM.

`COc1ccc(CCN2CC[C@H](Nc3nc(-c4ccc(F)c(F)c4)nc4ccccc34)C2)cc1S(N)(=O)=O` had an IC50 of 0.79 µM.

`COc1ccc(-c2ccc(NC(=O)c3cccc(Cl)c3)cc2)cc1CN1CCC(O)CC1` had an IC50 of 0.71 µM.

In turn, `COc1ccc(CC(=O)Nc2ccc(-c3cccc(-c4nc5c(C)cccc5[nH]4)c3)cc2)cc1O` returned an IC50 of 0.45 µM.

Regarding `CC(=O)Nc1ccc(C#Cc2ccc(-c3c(C)[nH]c(C)c(Cl)c3=O)cc2)cc1`, the IC50 was found to be 0.46 µM.

In the case of `Oc1cc(Nc2ccnc3cc(I)ccc23)ccc1F`, the IC50 amounted to 0.74 µM.

On to `CCN(CC)S(=O)(=O)n1ncc2c3c(N)nc(N)nc3ccc21`, for which the IC50 amounted to 0.05 µM.

In turn, `COc1ccc(NC(=O)Nc2ccc(C)c(-c3ccc(C(=O)NCCN4CCCC4)cc3)c2)cc1` had an IC50 of 0.9 µM.

On to `CS(=O)(=O)N1CC2(CCN(CCC(NC(=S)Nc3ccccc3)c3ccc(Cl)c(Cl)c3)CC2)c2ccccc21` (stereo not given), for which the 50% inhibitory concentration (IC50) was determined as 0.83 µM.

`Cc1cccc(Cn2c(C(N)=O)nn(-c3ccc([N+](=O)[O-])cc3C#N)c2=S)c1` came in with an IC50 of 0.73 µM.

In turn, `Cc1nn(-c2ccccc2)c2c1C(c1ccc(C(C)C)cc1)N1C(=N2)N(Cc2ccccc2)c2ccccc21` (stereo not given) displayed an IC50 of 0.78 µM.

`COc1ccc(N2C(=O)c3c(c4ccccc4n3C)C2c2ccccc2O)cc1` (stereo not given) returned an IC50 of 0.12 µM.

Compound `O=C(/C=C/c1ccc(Cl)c(Cl)c1)N1CCC(CCCN2CCC(c3c[nH]c4ccc(O)cc34)CC2)CC1` displayed an IC50 of 0.69 µM.

In the case of `CN1CCCC(CN2CCN(Cc3ccc(-c4ccc(-c5nc6ccccc6[nH]5)s4)cc3)CC2)C1` (stereo not given), the IC50 worked out at 0.13 µM.

`CCc1ccc(CN2CCC(CNC(=O)c3cc(-c4cccc(Cl)c4)cs3)C2)cc1` (stereo not given) showed an IC50 of 1.11 µM.

Compound `Cc1ccc2nc(C)cc(NN=Cc3ccccc3F)c2c1` returned an IC50 of 0.17 µM.

`CC1CC(C)CN(CCCNc2ccc(C(=O)Nc3ccc(C(F)(F)F)cc3)cc2[N+](=O)[O-])C1` (stereo not given): the IC50 was 0.2 µM.

The compound `CCCCN(CCCC)Cc1cc2ccccc2cc1O` gave an IC50 of 0.35 µM.

Consider `O=C(NC1CCC(N2CCC(c3ccccc3C(F)(F)F)CC2)CC1)c1cc2ccccc2[nH]1` (stereo not given), for which the IC50 came out at 0.52 µM.

Consider `Cc1cc(NC(=O)c2coc3cc(F)c(N4C[C@@H](C)N(C)[C@@H](C)C4)cc23)cnc1-c1ccc(C#N)cc1`, for which the IC50 stood at 0.7 µM.

The compound `COc1ccc2nccc([C@@H](O)CN3CCC(NCc4cnc5c(c4)NC(=O)CS5)CC3)c2c1` gave an IC50 of 0.86 µM.

For `c1cc(CN2CCCCC2)cc(OCCCNc2ccnc3ccccc23)c1`, the IC50 was found to be 0.43 µM.

For the compound `O=C(Nc1ccccc1)Nc1ccc(-c2cccc(-c3nc4ccc(C(F)(F)F)cc4[nH]3)c2)cc1`, the IC50 is 0.73 µM.

On to `NC1CCCN(Cc2cccc(-c3cccc(-c4nc5ccccc5[nH]4)c3)c2)C1` (stereo not given), for which the IC50 came out at 0.64 µM.

`CC(Cc1ccc(OCCOc2ccccc2)cc1)NCC(O)c1cccc(Cl)c1` (stereo not given) displayed an IC50 of 1.04 µM.

Consider `O=C(c1cccc(-c2ccc(-c3nc4ccc(F)cc4[nH]3)s2)c1)N1CCCCC1CN1CCC(O)C1` (stereo not given), for which the IC50 amounted to 0.72 µM.

With `Cc1ccc(O)cc1Nc1ccnc2ccc(C(C)(C)C)cc12`, the IC50 worked out at 1.25 µM.
